# Source: article PMC11842024, “Reversible male contraception by targeted inhibition of serine/threonine kinase 33” (Science (New York, N.Y.), 2024)
# pKi: −log10 of the molar value.
# Columns and labels:
# male mice = test: Fertility analysis and reversibility in male mice; format: in vivo
# Experimental: On the basis of molecular modeling, mouse and human STK33 have identical ATP binding pockets (fig. S19), consistent with evolutionary conservation and function of STK33. To determine the consequences of STK33 inhibition in vivo, we evaluated reproductive outcomes in male mice dosed with CDD-2807. […] In protocol 1, adult male mice (n = 6 per cohort) were treated with vehicle control or CDD-2807 at 15 mg kg^−1 intraperitoneally twice per day for 21 days, subsequently housed continuously with fertile female mice of reproductive age (two per male), and then evaluated at day 45 for effects of CDD-2807 on the male reproductive tract (after the first litter was born) or continued to be housed with the females until day 66 after the completion of the 60-day breeding data collection (fig. S21A). In protocol 2, adult male mice (n = 7 per cohort) were treated with vehicle control or CDD-2807 at 50 mg kg^−1 once per day for 21 days, subsequently housed continuously with females (two per male), and then evaluated at later time points (fig. S21B). […] In month 2, litters were born to all females housed with the six control males (2.0 ± 0 litters per male; 7.25 ± 0.17 pups per female per litter) (Fig. 4A). By contrast, no litters were produced by females housed with males who received CDD-2807 (Fig. 4A). For protocol 2 mice, all seven control males sired litters from both females in month 1 (7.29 ± 0.18 pups per litter per female), whereas only one female became pregnant and delivered a single pup from the seven CDD-2807–treated males (50 mg kg^−1 day^−1) (0.07 ± 0.07 pups per litter per female) (Fig. 4B). […] Thus, CDD-2807 delivery in both protocols induced a contraceptive effect. […]
# Fertility analysis. Sexually mature male C57/129 hybrid mice were randomly assigned to either the vehicle control treatment or the CDD-2807 treatment groups. Drug formulation and injections were as follows: for protocol 1 mice receiving the 15 mg/kg CDD-2807 twice daily dosing had the compound dissolved in DMSO, which was injected at 5% of the final volume in 10% Captisol and water. For protocol 2 mice receiving a single daily dose of 50 mg/kg CDD-2807, the compound was dissolved in DMSO and injected at 5% in 20% Captisol and water. All injections were administered as i.p. injections, and for the 15 mg/kg CDD-2807 and DMSO control mice, the injections were delivered in the morning and the evening. Mice in the 50 mg/kg dosing received i.p. injections once in the evening. Weights were measured daily prior to drug administration and monitored throughout the entirety of the injection period. Injections were given for 21 days prior to introduction of female mice. During the fertility assessment, males were housed continuously with two C57/129 sexually mature females for 45 days to generate approximately two months of fertility data. During the fertility assessment, the total number of pups born per litter sired by each male were counted and the total number of litters and pups sired per male over the entire trial was calculated. Mean pup number and SEM were used to determine differences in average number of […]
# fig. S21. Protocol timelines of mouse breeding and reversibility study. (A) Protocol 1 represents the 15 mg/kg twice per day drug dosing of CDD-2807. Samples were collected at euthanasia on day 45 from half of the male mice, allow ing for the completion of the 30-day breeding data to be collected and to give the male mice sufficient time with their female counterparts to initiate the day 60 breeding data. After completion of the entire 60-day breeding data, protocol 1 mice were then “rested” for 21 days prior to measuring their recovery period where they were housed with females to determine fertility. ( B) Protocol 2 represents the 50 mg/kg per day drug dosing of CDD-2807. Samples were collected at euthanasia on day 63 from half of the male mice; this allowed for the entire completion of the initial breeding data prior to collections. […]
# CLK2 = CLK2 (Homo sapiens, UniProt P49760); test: Z'-LYTE activity assay (ThermoFisher SelectScreen); format: biochemical; design: purchased SelectScreen Services (ThermoFisher); settings: [ATP] = Kmapp
# Chain of CLK2 (P49760 whole entry): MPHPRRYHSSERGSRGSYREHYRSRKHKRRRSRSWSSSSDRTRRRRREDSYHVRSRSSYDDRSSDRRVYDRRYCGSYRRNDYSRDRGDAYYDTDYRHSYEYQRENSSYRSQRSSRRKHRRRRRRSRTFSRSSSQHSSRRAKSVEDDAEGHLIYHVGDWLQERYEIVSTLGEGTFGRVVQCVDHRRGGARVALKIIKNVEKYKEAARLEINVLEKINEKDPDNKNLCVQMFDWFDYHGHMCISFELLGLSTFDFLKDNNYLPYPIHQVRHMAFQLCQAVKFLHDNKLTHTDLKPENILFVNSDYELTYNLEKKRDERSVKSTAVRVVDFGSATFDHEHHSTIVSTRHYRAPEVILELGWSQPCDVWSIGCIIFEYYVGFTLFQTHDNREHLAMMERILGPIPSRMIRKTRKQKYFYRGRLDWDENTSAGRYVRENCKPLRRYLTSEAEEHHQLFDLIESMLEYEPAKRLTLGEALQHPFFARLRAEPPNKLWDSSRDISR
# Source text: (§1) In vitro biochemical assays. Several small molecule assays were outsourced to SelectScreen Services (ThermoFisher) for STK33 and for off-target kinases (data sets are available on demand).
# (§2) These assays are LanthaScreen (binding assay) and Z’-LYTE (activity assay). Dose-responses were done with at least 5 different concentrations in duplicates, and parameters were optimized by calculations described below and provided with standard errors. […]
# (§3) Calculation of Ki values for kinase inhibitors from Z’-LYTE inhibition data. The Morrison equation with [ATP] = Kmapp for competitive inhibition (GraphPad Prism 7, San Diego, CA) was used to get Ki values. Since Kd and Ki values are defined the same way, in other words, Kd = [E] [I] / [EI] = Ki, Kd and Ki values can be compared. […]
# RET = RET (Homo sapiens, UniProt P07949); test: Z'-LYTE activity assay (ThermoFisher SelectScreen); format: biochemical; design: purchased SelectScreen Services (ThermoFisher); settings: [ATP] = Kmapp
# Chain of RET (P07949 29-1114): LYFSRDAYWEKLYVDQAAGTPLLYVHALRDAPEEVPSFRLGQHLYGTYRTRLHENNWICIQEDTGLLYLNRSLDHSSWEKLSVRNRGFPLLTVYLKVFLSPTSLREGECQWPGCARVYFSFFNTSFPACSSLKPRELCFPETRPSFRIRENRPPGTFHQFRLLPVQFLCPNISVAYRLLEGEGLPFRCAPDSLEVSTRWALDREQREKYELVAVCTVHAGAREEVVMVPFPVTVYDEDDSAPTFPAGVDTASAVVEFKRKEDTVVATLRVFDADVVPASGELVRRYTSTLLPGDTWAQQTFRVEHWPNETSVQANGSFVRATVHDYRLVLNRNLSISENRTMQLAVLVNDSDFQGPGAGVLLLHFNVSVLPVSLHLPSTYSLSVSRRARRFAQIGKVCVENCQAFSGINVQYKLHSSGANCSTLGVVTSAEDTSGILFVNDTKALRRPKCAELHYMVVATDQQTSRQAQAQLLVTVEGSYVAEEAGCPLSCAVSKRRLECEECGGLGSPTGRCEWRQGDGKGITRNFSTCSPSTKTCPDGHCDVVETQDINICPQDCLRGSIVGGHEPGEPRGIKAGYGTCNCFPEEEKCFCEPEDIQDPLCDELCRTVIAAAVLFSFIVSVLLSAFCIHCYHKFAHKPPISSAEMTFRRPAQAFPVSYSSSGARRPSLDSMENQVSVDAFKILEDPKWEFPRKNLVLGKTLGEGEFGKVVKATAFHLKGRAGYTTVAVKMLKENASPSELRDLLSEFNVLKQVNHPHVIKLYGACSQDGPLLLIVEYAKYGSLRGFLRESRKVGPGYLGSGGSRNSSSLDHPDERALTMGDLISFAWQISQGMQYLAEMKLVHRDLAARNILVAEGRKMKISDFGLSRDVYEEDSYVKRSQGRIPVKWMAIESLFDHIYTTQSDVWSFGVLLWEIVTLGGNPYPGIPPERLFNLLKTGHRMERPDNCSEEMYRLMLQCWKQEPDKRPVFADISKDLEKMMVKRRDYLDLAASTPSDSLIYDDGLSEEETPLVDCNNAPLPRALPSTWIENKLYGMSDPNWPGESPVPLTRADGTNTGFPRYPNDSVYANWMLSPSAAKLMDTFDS
# Source text: as §1, §2, §3
# [1] = Alanine transaminase (ALT) and aspartate transaminase (AST) assays in serum; format: in vivo, mice
# Experimental: Alanine transaminase (ALT) and aspartate transaminase (AST) assays. On day 45 of protocol 1 and day 7 and day 63 of protocol 2, three mice from each protocol were euthanized, and blood was collected through cardiac puncture. The serum was isolated by centrifuging the whole blood samples at 1500 g for 10 min and then maintained on wet ice before analysis. ALT and AST levels were measured in duplicates using assay kits (StanBio, Boerne, TX) according to the manufacturer's instructions. ALT and AST levels were determined using the rate of NADH oxidation, which was quantified by measuring absorbance at 340 nm using a CLARIOstar plate reader (BMG Labtech in Cary, NC). ALT and AST were tested for significance at multiple collection time points, tests for significance included a test for normality (Shapiro-Wilk test) and following the test for normality were then analyzed using an unpaired t-test with significance determined by an alpha of P = 0.05. […]
# any significant differences between groups.
# Fertility analysis. Sexually mature male C57/129 hybrid mice were randomly assigned to either the vehicle control treatment or the CDD-2807 treatment groups. Drug formulation and injections were as follows: for protocol 1 mice receiving the 15 mg/kg CDD-2807 twice daily dosing had the compound dissolved in DMSO, which was injected at 5% of the final volume in 10% Captisol and water. For protocol 2 mice receiving a single daily dose of 50 mg/kg CDD-2807, the compound was dissolved in DMSO and injected at 5% in 20% Captisol and water. All injections were administered as i.p. injections, and for the 15 mg/kg CDD-2807 and DMSO control mice, the injections were delivered in the morning and the evening. Mice in the 50 mg/kg dosing received i.p. injections once in the evening. Weights were measured daily prior to drug administration and monitored throughout the entirety of the injection period. […]
compound,measurement,setting,value
O=C(c1ccc2[nH]nc(C#Cc3ccccc3-c3ccccc3)c2c1)N1CC2(CCCNC2)C1 [CDD-2807],litters per male,"male mice; protocol 1 (15 mg/kg i.p. twice per day), month 1",1.0 ± 0.37 litters per male
same,pups per female per litter,"male mice; protocol 1, month 1",0.92 ± 0.34 pups per female per litter
same,treated males that sired litters,"male mice; protocol 1, month 1",four of the six
same,litters produced by females housed with treated males,"male mice; protocol 1, month 2",no litters
same,pups per litter per female after recovery,"male mice; protocol 1, treatment halted at day 63, 21 days rest, first month of breeding",7.67 ± 0.61 pups per litter per female
same,pups per litter per female,"male mice; protocol 2 (50 mg/kg/day i.p.), month 1",0.07 ± 0.07 pups per litter per female
same,time to sire first litters after treatment (fertility resumption),"male mice; protocol 2, after completion of treatment",53.5 ± 5.1 days
same,litters sired,"male mice; protocol 2, month 2",did not sire any litters
same,pKi,CLK2,8.89
same,pKi,RET,9.52
same,ALT,"[1]; Protocol 1, 45 Days",20.33 ± 5.30 IU/L
same,AST,"[1]; Protocol 1, 45 Days",35.80 ± 3.09 IU/L
same,ALT,"[1]; Protocol 2, 7 Days",23.65 ± 2.50 IU/L
same,AST,"[1]; Protocol 2, 7 Days",21.66 ± 3.30 IU/L
same,ALT,"[1]; Protocol 2, 63 Days",45.97 ± 11.04 IU/L
same,AST,"[1]; Protocol 2, 63 Days",29.76 ± 6.79 IU/L
